Literature values, collected in PMC9959244, “Revisiting the Solubility–Permeability Relationship with Hydrophobic Drug Umifenovir in Pluronic Solutions: Impact of pH and Co-Solvent” (Pharmaceutics, 2023).
Like-named read-outs stand apart in the source and are kept apart here.

Legend:
[1] = set-up: method as in PMID 33926020; settings: kneaded ternary complex with β-cyclodextrin and 1% poloxamer 188; cited from earlier work
[2] = set-up: method as in doi:10.1016/S1773-2247(07)50022-5; settings: cited from earlier work

Structure (SMILES): CCOC(=O)c1c(CSc2ccccc2)n(C)c2cc(Br)c(O)c(CN(C)C)c12.Cl [arbidol hydrochloride]
- Solubility increase [1]: 13.1 fold
- Increase of dissolution at 3 min vs pure compound ([2]; solid dispersion with PEG 4000): 14.0 fold
- Percent concentration after 3 min of dissolution ([2]; solid dispersion with PEG 4000): 53.6%
- Increase of dissolution at 3 min vs pure compound ([2]; solid dispersion with PEG 8000): 15.4 fold
- Percent concentration after 3 min of dissolution ([2]; solid dispersion with PEG 8000): 59.0%
